Experimental data: PubChem BioAssay AID1054 (Sanford-Burnham Center for Chemical Genomics, 2008)
The source made the active and inactive calls. No rule for the calls is given here.

Molecular target: Dual specificity protein phosphatase 6 (Rattus norvegicus) (UniProt Q64346)
Assay: DUSP6 phosphatase inhibition, redox-sensitive – biochemical, rat enzyme, secondary assay (AID 1054)
Conditions: recombinant MKP-3 phosphatase activity, redox-state secondary assay

Dual specificity protein phosphatase 6 (Rattus norvegicus), sequence (Q64346 whole entry, looked up): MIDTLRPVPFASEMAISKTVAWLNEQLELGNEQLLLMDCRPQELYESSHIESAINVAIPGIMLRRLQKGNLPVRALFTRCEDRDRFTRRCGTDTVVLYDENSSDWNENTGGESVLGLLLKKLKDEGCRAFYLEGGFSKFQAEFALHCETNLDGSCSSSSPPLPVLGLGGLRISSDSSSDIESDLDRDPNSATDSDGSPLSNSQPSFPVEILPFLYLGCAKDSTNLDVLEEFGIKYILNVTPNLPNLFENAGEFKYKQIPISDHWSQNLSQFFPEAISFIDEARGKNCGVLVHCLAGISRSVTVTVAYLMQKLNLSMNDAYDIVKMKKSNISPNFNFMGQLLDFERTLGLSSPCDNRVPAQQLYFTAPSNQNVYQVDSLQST

| SMILES | IC50 |
| --- | --- |
| Cc1ccc(C)n1C(Cc1ccccc1)C(=O)O (stereo not drawn) | > 100 µM (inactive) |
| O=C(Oc1ccc2c(c1)C1C=CCC1C(C(=O)O)N2)c1ccc(Cl)cc1Cl (stereo not drawn) | 15.6 µM |
| CCCCCCCCCCCCCCCCCCC#CCCCCCCCC(=O)O | > 100 µM (inactive) |
| CC(C)[C@@H](C(N)=O)n1c(=O)[nH]c(=O)n(-c2ccc(Cl)cc2)c1=O | > 100 µM (inactive) |
| CCOC(=O)C1Nc2c(OC)cccc2C2OCCCC12 (stereo not drawn) | > 100 µM (inactive) |
| COc1ccc2c(c1)C1C=CCC1C(C(=O)O)N2 (stereo not drawn) | 32 µM |
| COCCCNc1nc(=O)n(-c2ccc(F)cc2)c(=O)[nH]1 | > 100 µM (inactive) |
| Cc1cc([N+](=O)[O-])cc2c1NC(C(=O)O)C1CC=CC21 (stereo not drawn) | > 100 µM (inactive) |
| CCOC(=O)C1Nc2c(O)cccc2C2C=CCC12 (stereo not drawn) | > 100 µM (inactive) |
| COc1cc(C(=S)NC2CCCCC2)ccc1O | 6.35 µM |
| COc1cc(C(=S)NCc2ccc(Cl)c(C)c2)ccc1O | 10.5 µM |
| O=C(O)C1Nc2c(cccc2S(=O)(=O)c2ccccc2)C2C=CCC12 (stereo not drawn) | 58.7 µM |

Other lines, results leading:

| IC50 | SMILES |
| --- | --- |
| 9.64 µM | CCOC(=O)C1=C(C)N=c2s/c(=C\c3cc(Cl)c(OCC(=O)O)c(Cl)c3)c(=O)n2C1c1cccc(OC)c1 (stereo not drawn) |
| 16.8 µM | CCOC(=O)C1=C(C)N=c2sc(=Cc3ccc(OCC(=O)O)cc3)c(=O)n2C1c1ccc(Cl)cc1 (stereo not drawn) |
| > 100 µM (inactive) | O=C(Cc1cccs1)Nc1ccon1 |
| 4.19 µM | O=S(=O)(O)c1ccc2cc(N=Nc3cc(S(=O)(=O)O)c4cccnc4c3O)ccc2c1 |
| 10.1 µM | CC1=C(C(=O)OC(C)C)C(c2ccc(Cl)cc2)n2c(sc(=Cc3ccc(OCC(=O)O)cc3)c2=O)=N1 (stereo not drawn) |
| 4.56 µM | O=c1/c(=C/c2ccco2)sc2nc3cc(Br)cnc3n12 |
